Source: patent US9757375B2, “Compounds that inhibit human DNA ligases and methods of treating cancer” (University of Maryland, Baltimore, priority 2007, dated 2017)
Read-outs that look alike come from different tables or passages of the source.

Legend:
[1] = system: HCT116 and MCF10A cells; test: Screen for potentiation of DNA damaging agents, cell line not stated with the result; assay type: cell-based, human; conditions: for radiosensitizer activity / synergy with PARP inhibitors / enhancement of the cytostatic effect of MMS: 50 μM; for radiosensitizer activity: 2 gray of ionizing radiation; for synergy with PARP inhibitors: 3 AB 2 mM; for cell survival: sensitivity to DNA damaging agent (IR, MMS): cell line not stated; for enhancement of the cytostatic effect of MMS: MMS 100 μM
From the text: The 192 human DNA ligase inhibitors were screened in parallel for effects on proliferation and the ability to potentiate the effects of several DNA damaging agents using two cell human lines, a colon cancer line HCT116 and a normal breast epithelial cell line MCF10A using a Biomek FX Laboratory Automation Workstation as described (23). The DNA damaging agents used, methyl methanesulfonate (MMS), camptothecin, cis-platinum, 3 aminobenzamide and ionizing radiation, are representatives of classes of agents used to treat cancer. Briefly, HCT116 and MCF10A cells were plated in 96 well plates such that the cultures were about 80% confluent after 5 days incubation. Compounds were added to the cultures at either 15 μM or 50 μM 1 day after plating. After incubation for 3 days, cell lysed in a solution containing 1.2% Igepal CA-630 and SYBR green that stains DNA (1:1000, Molecular Probes, Eugene, Oreg.). Subsequently, fluorescence was measured per well. The studies with DNA damaging agents were performed as follows. […] For ionizing radiation, cells were pre-incubated with the compounds at 50 μM for 1 hour prior to exposure to 2 gray of ionizing radiation. Cultures were incubated for 3 days and then treated as above.

[2] = system: MCF10A cells; test: Screen for potentiation of DNA damaging agents (MMS, camptothecin, cis-platinum, 3 aminobenzamide, ionizing radiation); assay type: cell-based, human; conditions: for IC50 ratios of non- and 3-AB treated cells MCF10A: compound alone vs combination with 3-AB (2 mM); for IC50 ratios of non- and 3-AB treated cells MCF10A / MMS: Ratios of IC50 MCF10A: 1 = no sensitization; for Radiosensitizers: IC50 ratios MCF10A: ionizing radiation; for MMS: Ratios of IC50 MCF10A: compound alone vs combination with MMS (100 μM); for % growth inhibition MCF10A [2 Gy] 5-15 uM: with 2 Gy ionizing radiation, tick mark only
In short: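 HCT116 colon cancer and MCF10A breast epithelial cells received compounds at 15 μM or 50 μM one day after plating; for ionizing radiation, cells were pre-incubated 1 h with 50 μM compound before 2 Gy. After 3 days, cells were lysed with Igepal CA-630 plus SYBR green, and DNA fluorescence served as the proliferation read-out.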

[3] = target: T1, T4 DNA ligase (Enterobacteria phage T4, UniProt P00970); test: Radioactive gel-based DNA ligation assay; assay type: biochemical, bacteriophage T4; conditions: FIG. 2B
T1 construct: purchased NEB
T1 sequence (P00970 1-487): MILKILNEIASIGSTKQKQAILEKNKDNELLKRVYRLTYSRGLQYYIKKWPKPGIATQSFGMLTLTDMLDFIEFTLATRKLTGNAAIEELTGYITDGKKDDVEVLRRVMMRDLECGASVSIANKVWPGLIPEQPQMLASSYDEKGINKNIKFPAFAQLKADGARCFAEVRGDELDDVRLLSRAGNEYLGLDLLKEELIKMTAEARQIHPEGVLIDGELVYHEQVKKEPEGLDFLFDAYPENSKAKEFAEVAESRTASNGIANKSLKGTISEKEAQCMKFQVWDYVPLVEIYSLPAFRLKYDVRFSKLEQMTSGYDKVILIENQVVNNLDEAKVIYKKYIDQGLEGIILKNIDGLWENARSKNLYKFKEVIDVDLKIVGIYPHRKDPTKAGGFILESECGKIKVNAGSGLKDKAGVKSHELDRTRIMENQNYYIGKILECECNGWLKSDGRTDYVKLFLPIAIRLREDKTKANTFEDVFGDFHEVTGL
Procedure: A radioactive gel-based DNA ligation assay was performed as previously described (22). A 25-mer (5′-CGCCAGGGTTTTCCCAGTCACGACC-3′), and a 5′-[^32P] end-labeled 18-mer (5′-GTA AAA CGA CGG CCA GTG-3′) were annealed to a complementary 44-mer oligonucleotide, generating a linear duplex with a central nick. DNA joining reactions (30 μL) containing 0.5 pmol of labeled DNA substrate, and hLigI (0.02 pmol), hLigIIIβ (0.02 pmol), hLigIV/XRCC4 (0.1 pmol), or T4 DNA ligase (0.02 pmol) in ligation buffer were incubated in the absence or presence of ligase inhibitors at 25° C. for 30 min.
The effect of Compounds 67, 82 and 189 on DNA joining by human DNA ligases I, III and IV and T4 DNA ligase was determined. The IC50 values determined for Compounds 67, 82 and 189 using the fluorescence-based DNA joining assay (22) are shown for each of the DNA ligases. The effect of Compounds 67, 82 and 189 on DNA joining by human DNA ligases I, III and IV and T4 DNA ligase was determined using the radioactive gel-based assay (24). Representative gels of DNA ligation assays. The results of three independent experiments are shown graphically.

[4] = system: HCT116 cells; test: MTT cell growth assay; assay type: cell-based, human; conditions: for IC50: Homo sapiens
In short: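 HCT116 cells (1200 per well) adhered overnight, then were exposed to serially diluted compounds for 5 days. MTT was added for 4 h, formazan dissolved in isopropanol and absorbance read at 560 nm as the growth measure.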

[5] = system: DNA; test: DNA binding by displacement of ethidium bromide from DNA; conditions: EtBr replacement assay; 192 at 0, 50, 100 μM
Procedure: Candidate ligase inhibitors identified by CADD were assayed for their ability to inhibit hLigI and T4 DNA ligase using a high-throughput, fluorescence energy transfer-based DNA joining assay (22). Duplicate reactions (30 μL) containing 10 pmol of nicked DNA substrate and either 0.25 pmol of hLigI or 10 units of T4 DNA ligase were incubated in the presence or absence of 100 μmol/L of the putative inhibitor. DNA binding by the candidate DNA ligase inhibitors was measured by displacement of ethidium bromide from DNA as previously described (30).

[6] = system: HCT116 and MCF10A cells; test: Cell proliferation screen, result stated for one or both cell lines; assay type: cell-based; conditions: Homo sapiens, read-out: IC50 of inhibition of proliferation
[7] = system: HCT116 cells; test: Screen for potentiation of DNA damaging agents (MMS, camptothecin, cis-platinum, 3 aminobenzamide, ionizing radiation); assay type: cell-based, human; conditions: with 2 Gy ionizing radiation, tick mark only
[8] = HCT-116, cell growth, compound alone, read-out: IC50 (μM) HCT116
[9] = HCT-116, sections 'high concentrations (~50 μM)' and 'active in vitro that decreased cell growth', same figures given in μM elsewhere in Table 6, read-out: IC50 HCT116 (head without unit)

Compound: O=C(O)CSc1cc(Cl)c2nonc2c1[N+](=O)[O-] [Compound 64]
- radiosensitizer activity [1]: act as radiosensitizers
- synergy with PARP inhibitors [1]: act synergistically with PARP inhibitors
- cell survival: sensitivity to DNA damaging agent (IR, MMS) [1]: IR sensitive
- IC50 ratios of non- and 3-AB treated cells MCF10A [2]: 2
- Radiosensitizers: IC50 ratios MCF10A [2]: 1.2

Compound: Cc1c(Br)cc(NCC(=O)N/N=C\c2cc([N+](=O)[O-])ccc2O)cc1Br [Compound 67]
- inhibition of DNA joining by T4 DNA ligase [3]: not significantly inhibited
- synergy with PARP inhibitors [1]: act synergistically with PARP inhibitors
- enhancement of the cytostatic effect of MMS [1]: enhance the cytostatic effect of MMS
- cell survival: sensitivity to DNA damaging agent (IR, MMS) [1]: IR, MMS sensitive
- IC50 [4, 8]: 8 µM
- IC50 [4, 9]: 8 µM
- DNA binding of compound (effect on DNA binding by ethidium bromide) [5]: had no effect on DNA binding by ethidium bromide
- IC50 [6]: < 20 µM
- IC50 ratios of non- and 3-AB treated cells MCF10A [2]: 1.7
- MMS: Ratios of IC50 MCF10A [2]: 1.2
- % growth inhibition MCF10A [2 Gy] 5-15 uM [2]: ✓

Compound: O=c1[nH]ncc(N/N=C\c2ccc(O)c([N+](=O)[O-])c2)c1Cl [Compound 82]
- inhibition of DNA joining by T4 DNA ligase [3]: not significantly inhibited
- DNA binding of compound (effect on DNA binding by ethidium bromide) [5]: had no effect on DNA binding by ethidium bromide

Compound: O=C(Cn1cnc([N+](=O)[O-])n1)N/N=C/c1ccc(O)cc1O [Compound 151]
- % growth inhibition HCT116 [2 Gy] 5-15 uM [7]: ✓
- radiosensitizer activity [1]: act as radiosensitizers
- enhancement of the cytostatic effect of MMS [1]: enhance the cytostatic effect of MMS
- cell survival: sensitivity to DNA damaging agent (IR, MMS) [1]: MMS sensitive
- IC50 [4, 8]: 22 µM
- IC50 [4, 9]: 22 µM
- IC50 [6]: < 20 µM
- MMS: Ratios of IC50 MCF10A [2]: 1.8
- Radiosensitizers: IC50 ratios MCF10A [2]: 1
- % growth inhibition MCF10A [2 Gy] 5-15 uM [2]: ✓

Compound: O=C1Nc2ccccc2Oc2cc([N+](=O)[O-])cc([N+](=O)[O-])c21 [Compound 180]
- IC50 ([4]; HCT-116, read-out: IC50 HCT116 (head without unit)): 3 µM
- IC50 [4, 8]: 12 µM
- IC50 [6]: < 20 µM
- MMS: Ratios of IC50 MCF10A [2]: 1

Compound: CS(=O)(=O)NNC(=O)C(=O)NNc1ccccc1 [Compound 184]
- % growth inhibition HCT116 [2 Gy] 5-15 uM [7]: ✓
- inhibition of cell proliferation of HCT116 at 50 μM (MTT) ([4]; 50 μM, numbers printed under HCT116 in r92-r106: 16, 64, 124, 130, 165, 184 (30%), 195, 197, 198, 212): 184 (30%)

Compound: Nc1nc(S)nc(O)c1/N=C/c1ccccc1 [Compound 189]
- inhibition of DNA joining by T4 DNA ligase [3]: not significantly inhibited
- cell survival: sensitivity to DNA damaging agent (IR, MMS) [1]: IR sensitive
- DNA binding of compound (effect on DNA binding by ethidium bromide) [5]: had no effect on DNA binding by ethidium bromide

Compound: O=C(c1ccc(O)cc1)c1ccccc1O [Compound 200]
- % growth inhibition HCT116 [2 Gy] 5-15 uM [7]: ✓
- IC50 [4, 8]: ~10 µM
- IC50 [4, 9]: 10 to 150 µM
- IC50 ratios of non- and 3-AB treated cells MCF10A [2]: ID (1.2)
- MMS: Ratios of IC50 MCF10A [2]: ID (1)
